Source: ChEMBL document CHEMBL5649167, “The SUV4-20 inhibitor A-196 verifies a role for epigenetics in genomic integrity” (Nat Chem Biol, 2017)
Blank lines part the entries; values can stand above or below the molecule they belong to.

Key:
[1] = target: Histone-lysine N-methyltransferase KMT5B (Homo sapiens, UniProt Q4FZB7); experiment: Inhibition of recombinant human 6His-(Tev)-G-SUV420H1 (69 to 335 residues) using Biotin-tagged H4K20me1 and [3H-SAM] as substrate incubated for 2 hrs by scintillation proximity assay
[2] = target: Histone-lysine N-methyltransferase KMT5C (Homo sapiens, UniProt Q86Y97); experiment: Inhibition of human SUV420H2 using Biotin-tagged H4K20me1 and [3H-SAM] as substrate incubated for 2 hrs by scintillation proximity assay
[3] = target: T1, Adenosine receptor A1 (Homo sapiens, UniProt P30542); experiment: Inhibition of human Adenosine receptor A1 assessed as inhibition constant
T1 sequence (P30542 whole entry): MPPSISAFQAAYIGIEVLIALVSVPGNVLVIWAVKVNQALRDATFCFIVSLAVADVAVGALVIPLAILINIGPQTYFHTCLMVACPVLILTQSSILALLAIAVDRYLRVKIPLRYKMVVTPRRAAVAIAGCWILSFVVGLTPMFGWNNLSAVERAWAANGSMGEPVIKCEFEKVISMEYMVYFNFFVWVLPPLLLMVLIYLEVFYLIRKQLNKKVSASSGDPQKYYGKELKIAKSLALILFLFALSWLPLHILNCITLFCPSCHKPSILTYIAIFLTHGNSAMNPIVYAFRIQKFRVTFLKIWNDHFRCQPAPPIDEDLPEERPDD

[4] = system: B-cell; experiment: Induction of DNA repair in mouse B cells assessed as inhibition in ability of splenic cells to switch from IgM to IgG3 at 1 uM incubated for 4 days in the presence of LPS by flow cytometry analysis (Rvb=5.71%); format: functional; conditions: 96 h, time 4 day
[5] = system: PC-3; experiment: Antiproliferative activity against human PC-3 cells assessed as change in number of nuclei incubated for 72 hrs by Hoechst staining based high content microscopy; format: functional, cell-based; conditions: PC-3, 72 h
[6] = Inhibition of H4K20me1 in human U2OS cells incubated for 48 hrs by Western blotting analysis; format: functional, cell-based
[7] = Inhibition of H4K20me3 in human U2OS cells assessed as decrease in methylation level incubated for 72 hrs by Hoechst staining based high content microscopy; format: functional, cell-based
[8] = Inhibition of H4K20me3 in human LNCaP cells incubated for 48 hrs by Western blotting analysis; format: functional, cell-based
[9] = system: MEF; experiment: Antiproliferative activity against mouse MEF cells assessed as loss of pericentric H4K20me3 at 10 uM incubated for 3 days by immunofluorescence analysis relative to control; format: functional; conditions: time 3 day
[10] = Inhibition of H4K20me1 in human LNCaP cells incubated for 48 hrs by Western blotting analysis; format: functional, cell-based
[11] = Inhibition of H4K20me1 in human PC-3 cells assessed as increase in methylation level incubated for 72 hrs by Hoechst staining based high content microscopy; format: functional, cell-based; conditions: PC-3, 72 h
[12] = Inhibition of H4K20me2 in human LNCaP cells incubated for 48 hrs by Western blotting analysis; format: functional, cell-based
[13] = system: B-cell; experiment: Induction of DNA repair in mouse B cells assessed as inhibition in ability of splenic cells to switch from IgM to IgE at 10 uM incubated for 3 days in the presence of LPS plus IL-4 by flow cytometry analysis (Rvb=1.97%); format: functional; conditions: 72 h, time 3 day
[14] = system: U2OS; experiment: Antiproliferative activity against human U2OS cells assessed as change in number of nuclei incubated for 72 hrs by Hoechst staining based high content microscopy; format: functional, cell-based
[15] = target: Delta-type opioid receptor (Homo sapiens, UniProt P41143); experiment: Inhibition of human Delta-type opioid receptor assessed as inhibition constant
[16] = target: T2, Substance-K receptor (Homo sapiens, UniProt P21452); experiment: Inhibition of human Substance-K receptor assessed as inhibition constant
T2 sequence (P21452 whole entry): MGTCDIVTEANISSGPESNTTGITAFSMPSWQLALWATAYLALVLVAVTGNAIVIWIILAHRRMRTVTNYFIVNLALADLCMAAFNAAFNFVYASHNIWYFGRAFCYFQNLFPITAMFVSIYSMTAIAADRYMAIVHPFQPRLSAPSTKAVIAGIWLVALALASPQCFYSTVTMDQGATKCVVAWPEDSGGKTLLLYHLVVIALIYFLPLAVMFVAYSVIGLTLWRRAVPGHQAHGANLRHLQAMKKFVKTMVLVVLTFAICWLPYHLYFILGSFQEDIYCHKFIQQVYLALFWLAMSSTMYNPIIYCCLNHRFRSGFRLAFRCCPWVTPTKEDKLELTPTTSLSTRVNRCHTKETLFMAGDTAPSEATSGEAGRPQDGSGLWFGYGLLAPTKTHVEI

[17] = target: L-type calcium channel (verapamil binding site) (Homo sapiens, UniProt O60840+Q01668+Q13698+Q13936); experiment: Inhibition of human L-type calcium channel verapamil binding site at 10 uM relative to control; format: protein assay
[18] = system: B-cell; experiment: Induction of DNA repair in mouse B cells assessed as inhibition in ability of splenic cells to switch from IgM to IgG1 at 10 uM incubated for 2 days in the presence of LPS by flow cytometry analysis (Rvb=9.59%); format: functional; conditions: 48 h, time 2 day
[19] = system: B-cell; experiment: Induction of DNA repair in mouse B cells assessed as inhibition in ability of splenic cells to switch from IgM to IgE at 1 uM incubated for 3 days in the presence of LPS plus IL-4 by flow cytometry analysis (Rvb=1.97%); format: functional; conditions: 72 h, time 3 day
[20] = Inhibition of human GABA-gated Cl- channel assessed as inhibition constant
[21] = target: T3, Adenosine receptor A3 (Homo sapiens, UniProt P0DMS8); experiment: Inhibition of human Adenosine receptor A3 assessed as inhibition constant
T3 sequence (P0DMS8 whole entry): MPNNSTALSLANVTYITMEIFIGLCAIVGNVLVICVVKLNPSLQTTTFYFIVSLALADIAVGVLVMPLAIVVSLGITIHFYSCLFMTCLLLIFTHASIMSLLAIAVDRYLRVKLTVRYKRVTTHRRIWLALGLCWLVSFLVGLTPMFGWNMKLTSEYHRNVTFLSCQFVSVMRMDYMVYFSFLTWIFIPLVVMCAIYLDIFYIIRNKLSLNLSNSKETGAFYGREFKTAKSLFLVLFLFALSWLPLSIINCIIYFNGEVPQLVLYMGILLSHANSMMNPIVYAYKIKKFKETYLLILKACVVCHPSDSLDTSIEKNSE

[22] = system: B-cell; experiment: Induction of DNA repair in mouse B cells assessed as inhibition in ability of splenic cells to switch from IgM to IgG3 at 10 uM incubated for 4 days in the presence of LPS by flow cytometry analysis (Rvb=5.71%); format: functional; conditions: 96 h, time 4 day
[23] = Inhibition of H4K20me3 in human PC-3 cells assessed as decrease in methylation level incubated for 72 hrs by Hoechst staining based high content microscopy; format: functional, cell-based; conditions: PC-3, 72 h
[24] = Inhibition of H4K20me1 in human U2OS cells assessed as increase in methylation level incubated for 72 hrs by Hoechst staining based high content microscopy; format: functional, cell-based
[25] = target: KV channel (voltage-gated potassium channel) (Homo sapiens, UniProt O43525+O43526+O95259+P16389+P17658+P22001+P22459+P22460+P48547+P51787+P56696+Q03721+Q09470+Q12809+Q14003+Q14721+Q16322+Q6PIU1+Q8NCM2+Q8TAE7+Q8TDN1+Q8TDN2+Q92953+Q96KK3+Q96L42+Q96PR1+Q96RP8+Q9BQ31+Q9H252+Q9H3M0+Q9NR82+Q9NS40+Q9NSA2+Q9NZV8+Q9UIX4+Q9UJ96+Q9UK17+Q9ULD8+Q9ULS6+Q9UQ05); experiment: Inhibition of human KV channel at 10 uM relative to control; format: protein assay
[26] = target: Kappa-type opioid receptor (Homo sapiens, UniProt P41145); experiment: Inhibition of human Kappa-type opioid receptor assessed as inhibition constant
[27] = Inhibition of H4K20me3 in human U2OS cells incubated for 48 hrs by Western blotting analysis; format: functional, cell-based
[28] = Inhibition of human 5-HT3 receptor expressed in HEK293T cells at 10 uM relative to control; conditions: HEK-293T
[29] = system: HFF; experiment: Cytotoxicity against HFF cells assessed as cell viability upto 12.5 uM incubated for 48 hrs; format: toxicity, cell-based; conditions: human
[30] = Inhibition of H4K20me2 in human U2OS cells incubated for 48 hrs by Western blotting analysis; format: functional, cell-based
[31] = target: Adenosine receptor A2a (Homo sapiens, UniProt P29274); experiment: Inhibition of human Adenosine receptor A2a assessed as inhibition constant
[32] = system: HFF; experiment: Cytotoxicity against HFF cells assessed as cell viability at 1.5 to 100 uM incubated after 72 hrs; format: toxicity, cell-based; conditions: human, dose 1.5-100 µM
[33] = system: B-cell; experiment: Induction of DNA repair in mouse B cells assessed as inhibition in ability of splenic cells to switch from IgM to IgG1 at 1 uM incubated for 2 days in the presence of LPS by flow cytometry analysis (Rvb=9.59%); format: functional; conditions: 48 h, time 2 day

Histone-lysine N-methyltransferase KMT5C, sequence (Q86Y97 whole entry): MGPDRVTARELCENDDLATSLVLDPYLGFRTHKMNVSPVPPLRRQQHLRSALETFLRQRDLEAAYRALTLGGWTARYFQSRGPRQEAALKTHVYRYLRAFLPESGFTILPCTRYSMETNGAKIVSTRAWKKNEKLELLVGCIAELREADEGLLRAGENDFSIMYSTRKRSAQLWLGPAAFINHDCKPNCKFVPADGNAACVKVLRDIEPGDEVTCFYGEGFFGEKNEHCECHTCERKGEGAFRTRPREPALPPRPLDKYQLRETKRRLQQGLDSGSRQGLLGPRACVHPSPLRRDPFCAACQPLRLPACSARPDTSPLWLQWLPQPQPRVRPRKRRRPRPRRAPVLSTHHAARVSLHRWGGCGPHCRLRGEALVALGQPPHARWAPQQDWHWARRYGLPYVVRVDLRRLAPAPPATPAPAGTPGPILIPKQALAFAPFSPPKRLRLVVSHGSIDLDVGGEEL
Histone-lysine N-methyltransferase KMT5B, sequence (Q4FZB7 whole entry, the tested form may be a part): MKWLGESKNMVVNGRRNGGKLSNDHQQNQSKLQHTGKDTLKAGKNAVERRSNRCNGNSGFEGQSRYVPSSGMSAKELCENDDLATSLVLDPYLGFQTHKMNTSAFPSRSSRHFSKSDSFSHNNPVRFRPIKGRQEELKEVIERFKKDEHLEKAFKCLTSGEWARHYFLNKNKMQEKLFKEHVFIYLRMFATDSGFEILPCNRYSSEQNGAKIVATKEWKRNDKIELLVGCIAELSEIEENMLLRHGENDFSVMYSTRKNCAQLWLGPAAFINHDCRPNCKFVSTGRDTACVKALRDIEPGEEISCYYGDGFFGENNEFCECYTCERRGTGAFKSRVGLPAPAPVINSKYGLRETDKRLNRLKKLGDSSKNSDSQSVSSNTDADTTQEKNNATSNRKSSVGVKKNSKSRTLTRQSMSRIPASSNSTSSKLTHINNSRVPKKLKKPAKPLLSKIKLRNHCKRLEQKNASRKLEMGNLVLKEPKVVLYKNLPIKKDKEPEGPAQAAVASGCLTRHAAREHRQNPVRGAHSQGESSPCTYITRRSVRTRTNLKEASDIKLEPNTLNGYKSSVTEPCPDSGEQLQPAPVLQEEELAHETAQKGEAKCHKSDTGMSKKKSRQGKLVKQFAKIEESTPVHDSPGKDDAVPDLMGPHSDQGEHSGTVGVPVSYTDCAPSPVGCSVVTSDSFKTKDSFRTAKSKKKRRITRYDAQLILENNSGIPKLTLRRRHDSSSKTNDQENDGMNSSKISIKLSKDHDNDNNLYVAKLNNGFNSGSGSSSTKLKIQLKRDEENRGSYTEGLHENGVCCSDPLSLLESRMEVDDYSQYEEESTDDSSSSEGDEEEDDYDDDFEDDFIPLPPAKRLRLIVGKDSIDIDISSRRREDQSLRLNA
Delta-type opioid receptor, sequence (P41143 whole entry): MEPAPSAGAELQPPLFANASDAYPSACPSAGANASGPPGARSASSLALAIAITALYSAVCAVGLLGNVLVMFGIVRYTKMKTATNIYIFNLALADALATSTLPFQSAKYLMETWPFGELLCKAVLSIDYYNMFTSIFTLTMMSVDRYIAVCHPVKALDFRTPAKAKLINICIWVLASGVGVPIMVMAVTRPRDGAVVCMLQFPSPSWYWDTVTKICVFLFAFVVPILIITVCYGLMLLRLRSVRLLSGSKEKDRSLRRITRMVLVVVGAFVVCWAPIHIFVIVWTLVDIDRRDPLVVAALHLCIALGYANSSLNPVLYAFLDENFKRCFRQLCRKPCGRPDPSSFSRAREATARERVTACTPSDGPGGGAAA
Kappa-type opioid receptor, sequence (P41145 whole entry): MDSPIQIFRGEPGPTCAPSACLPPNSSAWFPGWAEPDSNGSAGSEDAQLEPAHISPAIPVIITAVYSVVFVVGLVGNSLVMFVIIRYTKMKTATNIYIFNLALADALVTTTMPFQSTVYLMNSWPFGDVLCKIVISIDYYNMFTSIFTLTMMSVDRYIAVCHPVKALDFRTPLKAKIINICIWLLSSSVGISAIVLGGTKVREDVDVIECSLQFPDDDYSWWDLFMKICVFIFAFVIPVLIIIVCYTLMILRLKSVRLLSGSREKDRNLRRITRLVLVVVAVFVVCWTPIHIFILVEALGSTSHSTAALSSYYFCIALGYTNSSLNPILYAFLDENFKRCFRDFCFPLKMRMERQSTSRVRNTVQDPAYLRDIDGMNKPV
Adenosine receptor A2a, sequence (P29274 whole entry): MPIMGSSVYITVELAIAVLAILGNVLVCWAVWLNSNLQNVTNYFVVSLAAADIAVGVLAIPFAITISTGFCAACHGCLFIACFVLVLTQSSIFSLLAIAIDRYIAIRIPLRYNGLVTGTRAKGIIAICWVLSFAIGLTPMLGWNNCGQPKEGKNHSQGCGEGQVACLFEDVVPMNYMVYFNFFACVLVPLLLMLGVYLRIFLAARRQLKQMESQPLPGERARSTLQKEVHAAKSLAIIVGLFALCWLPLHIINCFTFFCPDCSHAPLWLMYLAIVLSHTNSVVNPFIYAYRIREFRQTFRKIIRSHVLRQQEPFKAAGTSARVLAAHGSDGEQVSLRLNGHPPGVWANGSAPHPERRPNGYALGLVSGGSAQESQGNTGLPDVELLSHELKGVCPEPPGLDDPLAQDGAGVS

IC50 [1]: 5900 nM
IC50 [2]: 4800 nM
Structure (SMILES): Clc1ccc2c(NC3CCCC3)ccnc2c1

Ki [3]: 21 nM
IC50 [5]: > 20000 nM
IC50 [6]: 736 nM
IC50 [7]: 502 nM
IC50 [1]: 25 nM
IC50 [8]: 211 nM
IC50 [10]: 799 nM
IC50 [2]: 144 nM
IC50 [11]: 686 nM
IC50 [12]: 511 nM
IC50 [14]: > 20000 nM
Ki [15]: 9000 nM
Ki [16]: 4100 nM
inhibition at 10 µM [17]: -4%
Ki [20]: 1800 nM
Ki [21]: 2000 nM
IC50 [23]: 521 nM
IC50 [24]: 1910 nM
inhibition at 10 µM [25]: -18%
Ki [26]: > 10000 nM
IC50 [27]: 370 nM
IC50 [30]: 262 nM
Ki [31]: 28 nM
Structure (SMILES): Clc1cc2c(NC3CCCC3)nnc(-c3ccncc3)c2cc1Cl
inhibition at 1 µM [4]: 3.79%
Activity [9]: 97%
inhibition at 10 µM [13]: 0.73%
inhibition at 10 µM [18]: 3.68%
inhibition at 1 µM [19]: 1.47%
inhibition at 10 µM [22]: 3.85%
inhibition at 10 µM [28]: 32%
Activity [29]: Non-Toxic
Activity [32]: Non-Toxic
inhibition at 1 µM [33]: 5.87%
